Among the data in patent US7632811B2, “Analogs of parathyroid hormone” (Societe de Conseils de Recherches et D'Applications …, priority 1995, dated 2009) are Kd values, retold here.

Molecules are shown by their SMILES. Non-standard residues stand in square brackets, D forms with d. Residues, ends and D or L forms follow the SMILES beside them. Cha = N[C@@H](CC1CCCCC1)C(=O)O; Ac6c = NC1(C(=O)O)CCCCC1; Nle = CCCC[C@H](N)C(=O)O; Dap = NC[C@H](N)C(=O)O; Aib = CC(C)(N)C(=O)O

The first test addresses T1, PTH receptor present on SaOS-2 (human osteosarcoma cells) (Homo sapiens, UniProt Q03431).
T1 construct: host or cells: SaOS-2 human osteosarcoma cells (intact, confluent monolayers)
T1 sequence (Q03431 27-593): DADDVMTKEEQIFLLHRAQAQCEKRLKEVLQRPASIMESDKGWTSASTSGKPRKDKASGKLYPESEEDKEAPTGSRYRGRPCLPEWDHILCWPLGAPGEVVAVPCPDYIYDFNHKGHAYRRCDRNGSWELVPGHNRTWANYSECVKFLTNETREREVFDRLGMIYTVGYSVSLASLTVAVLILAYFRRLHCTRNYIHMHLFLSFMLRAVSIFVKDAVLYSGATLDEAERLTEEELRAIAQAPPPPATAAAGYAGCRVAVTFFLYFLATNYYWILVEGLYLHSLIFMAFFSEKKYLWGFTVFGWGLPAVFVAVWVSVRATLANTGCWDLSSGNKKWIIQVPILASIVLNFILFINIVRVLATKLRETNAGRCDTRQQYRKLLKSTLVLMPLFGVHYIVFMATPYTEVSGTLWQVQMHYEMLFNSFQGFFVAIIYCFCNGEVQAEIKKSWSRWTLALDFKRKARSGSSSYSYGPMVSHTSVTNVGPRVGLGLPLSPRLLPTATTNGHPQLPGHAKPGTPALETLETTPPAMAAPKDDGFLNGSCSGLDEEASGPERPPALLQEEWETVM
Briefly: Binding to PTH receptor on SaOS-2 cells (competition with mono-125I-[Nle8,18,Tyr34(3-125I)]bPTH(1-34)NH2). To be noted: Table I, 2 hrs at room temperature, read-out: Kd (half maximal inhibition of binding of mono-125I-[Nle8,18, Tyr34(3-125I)]bPTH(1-34)NH2). An outline of the steps: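 Confluent SaOS-2 cells in 5% FBS RPMI were incubated 2 h at room temperature with 10×10^4 cpm mono-125I-[Nle8,18,Tyr34(3-125I)]bPTH(1-34)NH2 plus competing peptide at 10^−11 to 10^−4 M. After washing, cell-bound radioactivity was counted; Kd taken as half-maximal inhibition of tracer binding.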
In general, Kd refers to the equilibrium constant for the complex coming apart. `CC[C@H](C)[C@H](NC(=O)[C@H](CCC(=O)O)NC(=O)[C@H](CO)NC(=O)[C@@H](NC(=O)[C@@H](N)CO)C(C)C)C(=O)N[C@@H](CCC(N)=O)C(=O)N[C@@H](CC(C)C)C(=O)N[C@@H](CCSC)C(=O)N[C@@H](Cc1c[nH]cn1)C(=O)N[C@@H](CC(N)=O)C(=O)N[C@@H](CC(C)C)C(=O)NCC(=O)N[C@@H](CCCCN)C(=O)N[C@@H](Cc1c[nH]cn1)C(=O)N[C@@H](CC(C)C)C(=O)N[C@@H](CC(N)=O)C(=O)N[C@@H](CO)C(=O)N[C@@H](CCSC)C(=O)N[C@@H](CCC(=O)O)C(=O)N[C@@H](CCCNC(=N)N)C(=O)N[C@H](C(=O)N[C@@H](CCC(=O)O)C(=O)N[C@@H](Cc1c[nH]c2ccccc12)C(=O)N[C@@H](CC(C)C)C(=O)N[C@@H](CCCNC(=N)N)C(=O)N[C@@H](CCCCN)C(=O)N[C@@H](CCCCN)C(=O)N[C@@H](CC(C)C)C(=O)N[C@@H](CCC(N)=O)C(=O)N[C@@H](CC(=O)O)C(=O)N[C@H](C(=O)N[C@@H](Cc1c[nH]cn1)C(=O)N[C@@H](CC(N)=O)C(=O)NC(C)(C)C(N)=O)C(C)C)C(C)C` [[Aib^34]hPTH(1-34)NH2]: the Kd came out at 7 nM.
With `CC[C@H](C)[C@H](NC(=O)[C@H](CCC(=O)O)NC(=O)[C@H](CO)NC(=O)[C@@H](NC(=O)[C@@H](N)CO)C(C)C)C(=O)N[C@@H](CCC(N)=O)C(=O)N[C@@H](CC(C)C)C(=O)N[C@@H](CCSC)C(=O)N[C@@H](Cc1c[nH]cn1)C(=O)N[C@@H](CC(N)=O)C(=O)N[C@@H](CC1CCCCC1)C(=O)NCC(=O)N[C@@H](CCCCN)C(=O)N[C@@H](Cc1c[nH]cn1)C(=O)N[C@@H](CC(C)C)C(=O)N[C@@H](CC(N)=O)C(=O)N[C@@H](CO)C(=O)N[C@@H](CCSC)C(=O)N[C@@H](CCC(=O)O)C(=O)N[C@@H](CCCNC(=N)N)C(=O)N[C@H](C(=O)N[C@@H](CCC(=O)O)C(=O)N[C@@H](Cc1c[nH]c2ccccc12)C(=O)N[C@@H](CC(C)C)C(=O)N[C@@H](CCCNC(=N)N)C(=O)N[C@@H](CCCCN)C(=O)N[C@@H](CCCCN)C(=O)N[C@@H](CC(C)C)C(=O)N[C@@H](CCC(N)=O)C(=O)N[C@@H](CC(=O)O)C(=O)N[C@H](C(=O)N[C@@H](Cc1c[nH]cn1)C(=O)N[C@@H](CC(N)=O)C(=O)N[C@@H](Cc1ccccc1)C(N)=O)C(C)C)C(C)C` [[Cha^11]hPTH(1-34)NH2] (H-SVSEIQLMHN[Cha]GKHLNSMERVEWLRKKLQDVHNF-NH2), the Kd worked out at 5 nM.
With `CC[C@H](C)[C@H](NC(=O)[C@H](CCC(=O)O)NC(=O)[C@H](CO)NC(=O)[C@@H](NC(=O)[C@@H](N)CO)C(C)C)C(=O)N[C@@H](CCC(N)=O)C(=O)N[C@@H](CC(C)C)C(=O)N[C@@H](CCSC)C(=O)N[C@@H](Cc1c[nH]cn1)C(=O)N[C@@H](CC(N)=O)C(=O)N[C@@H](CC(C)C)C(=O)NCC(=O)N[C@@H](CCCCN)C(=O)N[C@@H](Cc1c[nH]cn1)C(=O)N[C@@H](CC(C)C)C(=O)N[C@@H](CC(N)=O)C(=O)N[C@@H](CO)C(=O)N[C@@H](CCSC)C(=O)N[C@@H](CCC(=O)O)C(=O)N[C@@H](CCCNC(=N)N)C(=O)N[C@H](C(=O)N[C@@H](CCC(=O)O)C(=O)N[C@@H](Cc1c[nH]c2ccccc12)C(=O)N[C@@H](CC1CCCCC1)C(=O)N[C@@H](CCCNC(=N)N)C(=O)N[C@@H](CCCCN)C(=O)N[C@@H](CCCCN)C(=O)N[C@@H](CC(C)C)C(=O)N[C@@H](CCC(N)=O)C(=O)N[C@@H](CC(=O)O)C(=O)N[C@H](C(=O)N[C@@H](Cc1c[nH]cn1)C(=O)N[C@@H](CC(N)=O)C(=O)N[C@@H](Cc1ccccc1)C(N)=O)C(C)C)C(C)C` [[Cha^24]hPTH(1-34)NH2] (H-SVSEIQLMHNLGKHLNSMERVEW[Cha]RKKLQDVHNF-NH2), the dissociation constant Kd worked out at 100 nM.
As for `CCCC[C@H](NC(=O)[C@H](CO)NC(=O)[C@H](CC(N)=O)NC(=O)[C@H](CC(C)C)NC(=O)[C@H](Cc1c[nH]cn1)NC(=O)[C@H](CCCCN)NC(=O)CNC(=O)[C@H](CC1CCCCC1)NC(=O)[C@H](CC(N)=O)NC(=O)[C@H](Cc1c[nH]cn1)NC(=O)[C@H](CCCC)NC(=O)[C@H](CC1CCCCC1)NC(=O)[C@H](CCC(N)=O)NC(=O)[C@@H](NC(=O)[C@H](CCC(=O)O)NC(=O)[C@H](CO)NC(=O)[C@@H](NC(=O)[C@@H](N)CO)C(C)C)[C@@H](C)CC)C(=O)N[C@@H](CCC(=O)O)C(=O)N[C@@H](CCCNC(=N)N)C(=O)N[C@H](C(=O)N[C@@H](CCC(=O)O)C(=O)N[C@@H](Cc1c[nH]c2ccccc12)C(=O)N[C@@H](CC(C)C)C(=O)N[C@@H](CCCNC(=N)N)C(=O)N[C@@H](CCCCN)C(=O)N[C@@H](CCCCN)C(=O)N[C@@H](CC(C)C)C(=O)N[C@@H](CCC(N)=O)C(=O)N[C@@H](CC(=O)O)C(=O)N[C@H](C(=O)N[C@@H](Cc1c[nH]cn1)C(=O)N[C@@H](CC(N)=O)C(=O)N[C@@H](Cc1ccc(O)cc1)C(N)=O)C(C)C)C(C)C` [[Cha^7,11, Nle^8,18, Tyr^34]hPTH(1-34)NH2] (H-SVSEIQ[Cha][Nle]HN[Cha]GKHLNS[Nle]ERVEWLRKKLQDVHNY-NH2), the Kd worked out at 6 nM.
On to `CCCC[C@H](NC(=O)[C@H](CO)NC(=O)[C@H](CC(N)=O)NC(=O)[C@H](CC(C)C)NC(=O)[C@H](Cc1c[nH]cn1)NC(=O)[C@H](CCCCN)NC(=O)CNC(=O)[C@H](CC(C)C)NC(=O)[C@H](CC(N)=O)NC(=O)[C@H](Cc1c[nH]cn1)NC(=O)[C@H](CCCC)NC(=O)[C@H](CC(C)C)NC(=O)[C@H](CCC(N)=O)NC(=O)[C@@H](NC(=O)[C@H](CCC(=O)O)NC(=O)[C@H](CO)NC(=O)[C@@H](NC(=O)[C@@H](N)CN)C(C)C)[C@@H](C)CC)C(=O)N[C@@H](CCC(=O)O)C(=O)N[C@@H](CCCNC(=N)N)C(=O)N[C@H](C(=O)N[C@@H](CCC(=O)O)C(=O)N[C@@H](Cc1c[nH]c2ccccc12)C(=O)N[C@@H](CC(C)C)C(=O)N[C@@H](CCCNC(=N)N)C(=O)N[C@@H](CCCCN)C(=O)N[C@@H](CCCCN)C(=O)N[C@@H](CC(C)C)C(=O)N[C@@H](CCC(N)=O)C(=O)N[C@@H](CC(=O)O)C(=O)N[C@H](C(=O)N[C@@H](Cc1c[nH]cn1)C(=O)N[C@@H](CC(N)=O)C(=O)N[C@@H](Cc1ccc(O)cc1)C(N)=O)C(C)C)C(C)C` [[Dap,Nle^8,18, Tyr^34]hPTH(1-34)NH2] (H-[Dap]VSEIQL[Nle]HNLGKHLNS[Nle]ERVEWLRKKLQDVHNY-NH2), for which the Kd was 150 nM.
As to `CC[C@H](C)[C@H](NC(=O)[C@H](CCC(=O)O)NC(=O)[C@H](CO)NC(=O)[C@@H](NC(=O)[C@@H](N)CO)C(C)C)C(=O)N[C@@H](CCC(N)=O)C(=O)N[C@@H](CC(C)C)C(=O)N[C@@H](CCSC)C(=O)N[C@@H](Cc1c[nH]cn1)C(=O)N[C@@H](CC(N)=O)C(=O)N[C@@H](CC(C)C)C(=O)NCC(=O)N[C@@H](CCCCN)C(=O)N[C@@H](Cc1c[nH]cn1)C(=O)N[C@@H](CC(C)C)C(=O)NC(C)(C)C(=O)N[C@@H](CO)C(=O)N[C@@H](CCSC)C(=O)N[C@@H](CCC(=O)O)C(=O)N[C@@H](CCCNC(=N)N)C(=O)N[C@H](C(=O)N[C@@H](CCC(=O)O)C(=O)N[C@@H](Cc1c[nH]c2ccccc12)C(=O)N[C@@H](CC(C)C)C(=O)N[C@@H](CCCNC(=N)N)C(=O)N[C@@H](CCCCN)C(=O)N[C@@H](CCCCN)C(=O)N[C@@H](CC(C)C)C(=O)N[C@@H](CCC(N)=O)C(=O)N[C@@H](CC(=O)O)C(=O)N[C@H](C(=O)N[C@@H](Cc1c[nH]cn1)C(=O)N[C@@H](CC(N)=O)C(=O)N[C@@H](Cc1ccccc1)C(N)=O)C(C)C)C(C)C` [[Aib^16]hPTH(1-34)NH2] (H-SVSEIQLMHNLGKHL[Aib]SMERVEWLRKKLQDVHNF-NH2), the dissociation constant Kd was determined as 4 nM.

The same test, now with this note: Table II, 2 hrs at room temperature, read-out: Kd (half maximal inhibition of binding of mono-125I-[Nle8,18, Tyr34(3-125I)]bPTH(1-34)NH2).
For the compound `CC[C@H](C)[C@H](NC(=O)[C@H](CO)NC(=O)[C@H](CCCCN)NC(=O)CNC(=O)[C@H](CCCCN)NC(=O)[C@H](CC(=O)O)NC(=O)[C@H](Cc1c[nH]cn1)NC(=O)[C@H](CC(C)C)NC(=O)[C@H](CC(C)C)NC(=O)[C@H](CCC(N)=O)NC(=O)[C@H](Cc1c[nH]cn1)NC(=O)[C@H](CCC(=O)O)NC(=O)[C@H](CO)NC(=O)[C@@H](NC(=O)[C@H](C)N)C(C)C)C(=O)N[C@@H](CCC(N)=O)C(=O)N[C@@H](CC(=O)O)C(=O)N[C@@H](CC(C)C)C(=O)N[C@@H](CCCNC(=N)N)C(=O)N[C@@H](CCCNC(=N)N)C(=O)N[C@@H](CCCNC(=N)N)C(=O)N[C@@H](CCC(=O)O)C(=O)N[C@@H](CC(C)C)C(=O)NC1(C(=O)N[C@@H](CCC(=O)O)C(=O)N[C@@H](CCCCN)C(=O)N[C@@H](CC(C)C)C(=O)N[C@@H](CC(C)C)C(=O)NC(C)(C)C(=O)N[C@@H](CCCCN)C(=O)N[C@@H](CC(C)C)C(=O)N[C@@H](Cc2c[nH]cn2)C(=O)N[C@H](C(=O)N[C@@H](C)C(N)=O)[C@@H](C)O)CCCCC1` [[Glu^22,25, Leu^23,28,31, Ahc^24, Lys^26,30, Aib^29]hPTHrP(1-34)NH2] (H-AVSEHQLLHDKGKSIQDLRRREL[Ac6c]EKLL[Aib]KLHTA-NH2; N-terminus assumed), the equilibrium dissociation constant (Kd) is 6 nM.
